Test results from ChEMBL document CHEMBL6153137, “Design, Synthesis, and Biological Evaluation of Novel Orally Available Covalent CDK12/13 Dual Inhibitors for the Treatment of Tumors” (J Med Chem, 2025).
The source made the active and inactive calls. The rule behind the calls is not given here.

What was measured:
[1] = Toxicity against male Sprague-Dawley rat assessed as decrease in thymus volume at 10 to 40 mg/kg, po administered once daily via gavage for 28 days and measured on day 29; type: organism-based; settings: in vivo, 696 h, dose 10-40 mg/kg, time 29 day
[2] = AUC(0 to t) in female Sprague-Dawley rat at 7.5 mg/kg, po administered via gavage and measured on day 1; type: ADME, organism-based; settings: in vivo, 24 h, time 1 day
[3] = Toxicity against Balb/c mouse xenografted with human SUM149PT cells assessed as body weight at 30 to 60 mg/kg, po administered once daily via gavage and measured every 3 days for 3 weeks; type: organism-based; settings: in vivo, 504 h, dose 30-60 mg/kg
[4] = Half life in female Sprague-Dawley rat at 7.5 mg/kg, po administered once daily via gavage for 28 days; type: ADME, organism-based; settings: in vivo, time 28 day
[5] = Half life in male Sprague-Dawley rat at 20 mg/kg, po administered once daily via gavage for 28 days; type: ADME, organism-based; settings: in vivo, time 28 day
[6] = Cmax in male Sprague-Dawley rat at 40 mg/kg, po administered via gavage and measured on day 1; type: ADME, organism-based; settings: in vivo, time 1 day
[7] = Clearance in Sprague-Dawley rat at 1 mg/kg, iv measured for 24 hrs by LC-MS/MS analysis; type: ADME, organism-based; settings: in vivo
HEP Sf9 [8] = assay: Inhibition of human recombinant N-terminal GST-tagged CDK6/C-terminal 6X His-tagged Cyclin D3 S259A mutant expressed in HEP Sf9 cells using ATP as substrate at 2 uM measured after 60 mins by ADP-Glo reagent based luminescence analysis
[9] = Cmax in female Sprague-Dawley rat at 7.5 mg/kg, po administered via gavage and measured on day 1; type: ADME, organism-based; settings: in vivo, time 1 day
[10] = molecular target: Cyclin-dependent kinase 7 (Homo sapiens) (UniProt P50613); assay: Inhibition of CDK7 (unknown origin) at 5 uM by DiscoverX KinomeScan ScanMAX analysis
Mus musculus [11] = assay: In vivo inhibition of CDK12/13 in Balb/c mouse xenografted with human SUM149PT cells assessed as reduction in BRCA1 gene expression at 15 to 30 mg/kg, po administered once daily via gavage and measured at 4 hrs post-last drug dosage by qPCR analysis; type: functional, organism-based; settings: dose 15-30 mg/kg
Mus musculus [12] = assay: In vivo inhibition of CDK7 in Balb/c mouse xenografted with human SUM149PT cells assessed as reduction in phosphorylation of Ser5 on RNA Pol II at 15 to 30 mg/kg, po administered once daily via gavage and measured at 4 hrs post-last drug dosage by western blot analysis; type: functional, organism-based; settings: dose 15-30 mg/kg
[13] = Half life in female Sprague-Dawley rat at 30 mg/kg, po administered via gavage and measured on day 1; type: ADME, organism-based; settings: in vivo, time 1 day
[14] = Cmax in Balb/c mouse xenografted with human MV4-11 cells at 15 mg/kg, po administered once daily via gavage; type: ADME, organism-based; settings: in vivo
HCT-116 = assay: Antiproliferative activity against human HCT-116 cells assessed as reduction in cell viability incubated for 7 days by CellTiter-Glo reagent based luminescence analysis; type: functional; settings: HCT-116, 168 h
[15] = Cmax in male Sprague-Dawley rat at 10 mg/kg, po administered once daily via gavage for 28 days; type: ADME, organism-based; settings: in vivo, time 28 day
[16] = Toxicity against Sprague-Dawley rat assessed as abnormalities at 1 mg/kg, iv measured for 24 hrs; type: organism-based; settings: in vivo
[17] = Toxicity against female Sprague-Dawley rat assessed as effect on hematocrit level at 7.5 to 30 mg/kg, po administered once daily via gavage for 28 days and measured on day 29; type: organism-based; settings: in vivo, 696 h, dose 7.5-30 mg/kg, time 29 day
[18] = AUC(0 to t) in male Sprague-Dawley rat at 10 mg/kg, po administered via gavage and measured on day 1; type: ADME, organism-based; settings: in vivo, 24 h, time 1 day
[19] = Toxicity against male Sprague-Dawley rat assessed as effect on hemoglobin level at 10 to 40 mg/kg, po administered once daily via gavage for 28 days and measured on day 29; type: organism-based; settings: in vivo, 696 h, dose 10-40 mg/kg, time 29 day
[20] = Toxicity against male Sprague-Dawley rat assessed as perianal contamination at 40 mg/kg, po administered once daily via gavage for 28 days; type: organism-based; settings: in vivo, 672 h, time 28 day
[21] = AUC (0 to infinity) in Sprague-Dawley rat at 50 mg/kg, po by LC-MS/MS analysis; type: ADME, organism-based; settings: in vivo
HEP Sf9 [22] = assay: Inhibition of human recombinant N-terminal GST-tagged CDK4/C-terminal 6XHis-tagged Cyclin D3 S259A mutant expressed in HEP Sf9 cells using ATP as substrate at 2 uM measured after 60 mins by ADP-Glo reagent based luminescence assay
NAMALVA = assay: Antiproliferative activity against human NAMALWA cells assessed as reduction in cell viability incubated for 7 days by CellTiter-Glo reagent based luminescence analysis; type: functional; settings: 168 h
[23] = Cmax in Balb/c mouse xenografted with human SUM149PT cells at 60 mg/kg, po administered once daily via gavage; type: ADME, organism-based; settings: in vivo
[24] = GSH reactivity assessed as half life to adduct formation at 10 uM by LC-MS/MS analysis; type: physicochemical
[25] = Cmax in female Sprague-Dawley rat at 30 mg/kg, po administered once daily via gavage for 28 days; type: ADME, organism-based; settings: in vivo, time 28 day
[26] = Toxicity against female Sprague-Dawley rat assessed as effect on monocytes level at 7.5 to 30 mg/kg, po administered once daily via gavage for 28 days and measured on day 29; type: organism-based; settings: in vivo, 696 h, dose 7.5-30 mg/kg, time 29 day
[27] = Half-life in Balb/c mouse xenografted with human MV4-11 cells at 15 mg/kg, po administered once daily via gavage; type: ADME, organism-based; settings: in vivo
Mus musculus [28] = assay: In vivo inhibition of CDK12/13 in Balb/c mouse xenografted with human SUM149PT cells assessed as reduction in FANCI gene expression at 15 to 30 mg/kg, po administered once daily via gavage and measured at 4 hrs post-last drug dosage by qPCR analysis; type: functional, organism-based; settings: dose 15-30 mg/kg
[29] = Toxicity against female Sprague-Dawley rat assessed as effect on hemoglobin level at 7.5 to 30 mg/kg, po administered once daily via gavage for 28 days and measured on day 29; type: organism-based; settings: in vivo, 696 h, dose 7.5-30 mg/kg, time 29 day
[30] = AUC(0 to t) in female Sprague-Dawley rat at 30 mg/kg, po administered once daily via gavage for 28 days; type: ADME, organism-based; settings: in vivo, 672 h, time 28 day
[31] = Toxicity against female Sprague-Dawley rat assessed as effect on glucose level in blood at 7.5 to 30 mg/kg, po administered once daily via gavage for 28 days and measured on day 29; type: organism-based; settings: in vivo, 696 h, dose 7.5-30 mg/kg, time 29 day
[32] = molecular target: Voltage-gated inwardly rectifying potassium channel KCNH2 (Homo sapiens, UniProt Q12809); assay: Inhibition of hERG expressed in CHO cells assessed as inhibition of channel current measured at holding potential of -80 mV by whole cell patch clamp analysis; type: toxicity, cell-based
[33] = molecular target: Cyclin-dependent kinase 12/13 (Homo sapiens) (UniProt Q14004+Q9NYV4); assay: Inhibition of CDK12/13 in human SUM149PT cells assessed as reduction in BRCA1 gene expression at 500 nM incubated for 8 to 24 hrs by qPCR analysis; type: cell-based; settings: time lower 8.0 hrs, time upper […]
Cytochrome P450 3A4 = Cytochrome P450 3A4 (Homo sapiens, UniProt P08684); assay: Inhibition of CYP3A4 in human liver microsomes assessed as inhibition of midazolam-1'-hydroxylation incubated for 10 mins in presence of NADPH by LC-MS/MS analysis; type: ADME, Microsome
Sequence of Cytochrome P450 3A4 (P08684 whole entry): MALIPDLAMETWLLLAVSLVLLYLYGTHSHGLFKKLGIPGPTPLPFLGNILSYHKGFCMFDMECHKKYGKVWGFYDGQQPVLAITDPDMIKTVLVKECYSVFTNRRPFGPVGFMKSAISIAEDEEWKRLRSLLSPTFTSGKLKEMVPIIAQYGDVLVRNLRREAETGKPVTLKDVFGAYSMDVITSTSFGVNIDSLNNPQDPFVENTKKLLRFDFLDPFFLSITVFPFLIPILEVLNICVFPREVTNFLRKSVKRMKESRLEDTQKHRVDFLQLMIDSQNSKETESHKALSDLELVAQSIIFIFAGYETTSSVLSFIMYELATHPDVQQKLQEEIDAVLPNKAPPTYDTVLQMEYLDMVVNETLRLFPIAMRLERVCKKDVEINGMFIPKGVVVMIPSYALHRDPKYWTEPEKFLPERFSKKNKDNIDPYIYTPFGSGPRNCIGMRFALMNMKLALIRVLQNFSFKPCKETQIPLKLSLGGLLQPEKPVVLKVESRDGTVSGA

Sequence of Voltage-gated inwardly rectifying potassium channel KCNH2 (Q12809 whole entry): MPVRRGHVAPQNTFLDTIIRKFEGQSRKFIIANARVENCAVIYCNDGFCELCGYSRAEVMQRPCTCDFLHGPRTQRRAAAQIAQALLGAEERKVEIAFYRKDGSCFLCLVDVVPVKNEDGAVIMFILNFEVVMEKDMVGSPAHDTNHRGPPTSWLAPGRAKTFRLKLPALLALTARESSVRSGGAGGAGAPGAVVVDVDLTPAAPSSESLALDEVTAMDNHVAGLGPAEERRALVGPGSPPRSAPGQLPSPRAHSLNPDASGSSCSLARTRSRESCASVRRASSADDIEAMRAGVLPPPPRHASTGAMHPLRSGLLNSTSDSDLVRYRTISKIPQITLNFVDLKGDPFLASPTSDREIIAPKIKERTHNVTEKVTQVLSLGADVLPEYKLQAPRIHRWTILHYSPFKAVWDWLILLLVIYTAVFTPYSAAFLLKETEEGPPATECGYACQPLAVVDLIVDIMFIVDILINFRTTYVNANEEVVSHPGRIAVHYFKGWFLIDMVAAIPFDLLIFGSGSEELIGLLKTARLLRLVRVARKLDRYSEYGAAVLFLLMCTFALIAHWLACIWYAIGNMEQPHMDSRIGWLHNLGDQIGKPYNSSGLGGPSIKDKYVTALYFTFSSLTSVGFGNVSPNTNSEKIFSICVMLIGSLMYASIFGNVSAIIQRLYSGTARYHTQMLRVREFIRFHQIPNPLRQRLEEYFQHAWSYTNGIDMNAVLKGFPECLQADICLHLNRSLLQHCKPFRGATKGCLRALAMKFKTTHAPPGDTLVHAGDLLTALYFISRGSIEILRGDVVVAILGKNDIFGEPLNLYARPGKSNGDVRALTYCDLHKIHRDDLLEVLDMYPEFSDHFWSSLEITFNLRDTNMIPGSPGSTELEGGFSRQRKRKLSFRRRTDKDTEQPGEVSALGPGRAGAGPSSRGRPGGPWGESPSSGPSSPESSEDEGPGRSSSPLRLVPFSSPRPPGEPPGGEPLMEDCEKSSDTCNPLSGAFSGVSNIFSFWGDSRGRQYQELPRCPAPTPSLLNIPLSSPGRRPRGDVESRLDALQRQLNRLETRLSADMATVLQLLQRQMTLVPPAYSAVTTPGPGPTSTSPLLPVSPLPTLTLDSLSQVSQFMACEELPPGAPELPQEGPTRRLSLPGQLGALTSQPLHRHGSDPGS
Sequence of Cyclin-dependent kinase 7 (Homo sapiens) (P50613 whole entry): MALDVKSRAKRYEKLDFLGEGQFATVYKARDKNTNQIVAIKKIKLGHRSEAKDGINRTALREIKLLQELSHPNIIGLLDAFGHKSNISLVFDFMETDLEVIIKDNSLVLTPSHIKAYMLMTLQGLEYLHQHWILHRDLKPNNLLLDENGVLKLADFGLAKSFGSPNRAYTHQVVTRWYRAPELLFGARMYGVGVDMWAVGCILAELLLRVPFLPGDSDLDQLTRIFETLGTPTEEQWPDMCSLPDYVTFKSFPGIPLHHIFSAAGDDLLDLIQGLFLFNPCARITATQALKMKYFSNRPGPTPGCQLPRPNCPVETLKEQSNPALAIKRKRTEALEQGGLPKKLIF

SMILES: C=CC(=O)N1CCc2c(ncnc2N2CC[C@@H](Nc3ncc(Cl)c(OC)n3)C2)C1
- Activity [1]: Toxic
- AUCt [2]: 1640 ng·h/mL
- Activity [3]: Non-toxic
- half-life [4]: 2 h
- half-life [5]: 4.2 h
- Cmax [6]: 1660 ng/mL
- clearance [7]: 62.4 mL/min/kg
- inhibition (HEP Sf9 [8]): 23%
- Cmax [9]: 870 ng/mL
- inhibition [10]: Active
- inhibition (Mus musculus [11]): Active
- inhibition (Mus musculus [12]): inactive
- half-life [13]: 4 h
- Cmax [14]: 647 ng/mL
- IC50 (HCT-116): 128 nM
- Cmax [15]: 576 ng/mL
- Activity [16]: Non-toxic
- Activity [17]: Non-toxic
- AUCt [18]: 978 ng·h/mL
- Activity [19]: Non-toxic
- Activity [20]: Toxic
- AUC(0-inf) [21]: 6690 ng·h/mL
- inhibition (HEP Sf9 [22]): 68%
- IC50 (NAMALVA): 98 nM
- Cmax [23]: 3300 ng/mL
- t1/2 [24]: 1.38 h
- Cmax [25]: 1690 ng/mL
- Activity [26]: Non-toxic
- half-life [27]: 4.09 h
- inhibition (Mus musculus [28]): Active
- Activity [29]: Non-toxic
- AUCt [30]: 7860 ng·h/mL
- Activity [31]: Non-toxic
- IC50 [32]: > 30000 nM
- inhibition [33]: Active
- IC50 (Cytochrome P450 3A4): > 50000 nM
